Source: patent US20260061027A1 (NeuroTher, LLC, priority 2024, published 2026)

Test: In vitro metabolic stability of hepatocytes
Settings: Mouse hepatocytes, 0.5 ×10^6 cells/mL

O=c1ccc2ccc(O)cc2o1 [7-Hydroxycoumarin]
T1/2: 3.0 min
